Values joined by “and” are separate entries in the source; they are usually repeats but may differ in a detail not shown here. Equal values may be shown once. Records with an inconclusive call do not appear.
System: BDF1 mice, colon carcinoma 38 sc, T/C %
Experiment: NCI In Vivo Anticancer Drug Screen. Data for tumor model Colon Carcinoma 38 (subcutaneous) in B6D2F1 (BDF1) mice
Description: The antitumor activity of compounds was measured in mice bearing transplantable tumors. Survival or tumor size were measured and the results are expressed as the measurement made in the treated group (T) divided by the measurement made in the vehicle treated control group (C). The tumor model used in this assay is Colon Carcinoma 38 (subcutaneous) in B6D2F1 (BDF1) mice

[1] = endpoint: median tumor weight (est.), dose: 25.0 mg/kg/injection, schedule: Q07DX002 (ip), vehicle: saline, higher = larger tumour
[2] = endpoint: median tumor weight (est.), dose: 50.0 mg/kg/injection, schedule: Q07DX002 (ip), vehicle: saline, higher = larger tumour
[3] = endpoint: median tumor weight (est.), dose: 100.0 mg/kg/injection, schedule: Q07DX002 (ip), vehicle: saline, higher = larger tumour
[4] = endpoint: median tumor weight (est.), dose: 100.0 mg/kg/injection, schedule: Q07DX003 (ip), vehicle: saline, higher = larger tumour
[5] = endpoint: median tumor weight (est.), dose: 200.0 mg/kg/injection, schedule: Q07DX003 (ip), vehicle: saline, higher = larger tumour
[6] = endpoint: median tumor weight (est.), dose: 800.0 mg/kg/injection, schedule: Q07DX002 (ip), vehicle: saline, higher = larger tumour
[7] = endpoint: median tumor weight (est.), dose: 6.25 mg/kg/injection, schedule: Q07DX002 (ip), vehicle: Klucel (hydroxypropylcellulose) (HPC), higher = larger tumour
[8] = endpoint: median tumor weight (est.), dose: 12.5 mg/kg/injection, schedule: Q07DX002 (ip), vehicle: Klucel (hydroxypropylcellulose) (HPC), higher = larger tumour
[9] = endpoint: median tumor weight (est.), dose: 25.0 mg/kg/injection, schedule: Q07DX002 (ip), vehicle: Klucel (hydroxypropylcellulose) (HPC), higher = larger tumour
[10] = endpoint: median tumor weight (est.), dose: 50.0 mg/kg/injection, schedule: Q07DX002 (ip), vehicle: Klucel (hydroxypropylcellulose) (HPC), higher = larger tumour
[11] = endpoint: median tumor weight (est.), dose: 200.0 mg/kg/injection, schedule: Q07DX002 (ip), vehicle: Klucel (hydroxypropylcellulose) (HPC), higher = larger tumour
[12] = endpoint: median tumor weight (est.), dose: 400.0 mg/kg/injection, schedule: Q07DX002 (ip), vehicle: Klucel (hydroxypropylcellulose) (HPC), higher = larger tumour
[13] = endpoint: median tumor weight (est.), dose: 50.0 mg/kg/injection, schedule: Q07DX002 (ip), vehicle: saline with Tween-80, higher = larger tumour
[14] = endpoint: median tumor weight (est.), dose: 100.0 mg/kg/injection, schedule: Q07DX002 (ip), vehicle: saline with Tween-80, higher = larger tumour
[15] = endpoint: median tumor weight (est.), dose: 200.0 mg/kg/injection, schedule: Q07DX002 (ip), vehicle: saline with Tween-80, higher = larger tumour
[16] = endpoint: median tumor weight (est.), dose: 200.0 mg/kg/injection, schedule: Q07DX002 (ip), vehicle: saline, higher = larger tumour
[17] = endpoint: median tumor weight (est.), dose: 800.0 mg/kg/injection, schedule: Q07DX002 (ip), vehicle: saline with Tween-80, higher = larger tumour
[18] = endpoint: median tumor weight (est.), dose: 100.0 mg/kg/injection, schedule: Q07DX002 (ip), vehicle: Klucel (hydroxypropylcellulose) (HPC), higher = larger tumour

## OC(CCl)CN1CC[N+]2(CC1)CC[N+]1(CCN(CC(O)CCl)CC1)CC2 (stereo unspecified)
endpoint: median tumor weight (est.), dose: 12.5 mg/kg/injection, schedule: Q07DX002 (ip), vehicle: saline, higher = larger tumour
  T/C: 73 % of control
endpoint: median tumor weight (est.), dose: 12.5 mg/kg/injection, schedule: Q07DX003 (ip), vehicle: saline, higher = larger tumour
  T/C: 90 % of control
[1]
  T/C: 124 % of control
endpoint: median tumor weight (est.), dose: 25.0 mg/kg/injection, schedule: Q07DX003 (ip), vehicle: saline, higher = larger tumour
  T/C: 91 % of control
[2]
  T/C: 90 % of control and 99 % of control
endpoint: median tumor weight (est.), dose: 50.0 mg/kg/injection, schedule: Q07DX003 (ip), vehicle: saline, higher = larger tumour
  T/C: 76 % of control
[3]
  T/C: 60 % of control
[4]
  T/C: 57 % of control
[5]
  T/C: 54 % of control
endpoint: median tumor weight (est.), dose: 400.0 mg/kg/injection, schedule: Q07DX003 (ip), vehicle: saline, higher = larger tumour
  T/C: 44 % of control
[6]
  T/C: 30 % of control

## C=C(C)[C@]12CC(C)C34OC(/C=C\C=C\CCCCCCCCC)(O[C@@H]1[C@@H]3[C@@H]1O[C@]1(CO)[C@@H](O)[C@]1(O)C(=O)C(C)=C[C@@H]41)O2 (stereo partly specified)
endpoint: median tumor weight (est.), dose: 0.18 mg/kg/injection, schedule: Q07DX002 (ip), vehicle: distilled water + alcohol, higher = larger tumour
  T/C: 109 % of control
endpoint: median tumor weight (est.), dose: 0.37 mg/kg/injection, schedule: Q07DX002 (ip), vehicle: distilled water + alcohol, higher = larger tumour
  T/C: 76 % of control
endpoint: median tumor weight (est.), dose: 0.75 mg/kg/injection, schedule: Q07DX002 (ip), vehicle: distilled water + alcohol, higher = larger tumour
  T/C: 105 % of control
endpoint: median tumor weight (est.), dose: 1.5 mg/kg/injection, schedule: Q07DX002 (ip), vehicle: distilled water + alcohol, higher = larger tumour
  T/C: 75 % of control

## N#C[Se-].c1ccc([Te+](c2ccccc2)c2ccccc2)cc1
endpoint: median tumor weight (est.), dose: 3.12 mg/kg/injection, schedule: Q07DX002 (ip), vehicle: Klucel (hydroxypropylcellulose) (HPC), higher = larger tumour
  T/C: 181 % of control
[7]
  T/C: 80 % of control
[8]
  T/C: 65 % of control
[9]
  T/C: 186 % of control

## S=C(Nc1ccc(Cl)c(Cl)c1)N1c2ccccc2-n2cccc2C1c1cccnc1 (stereo unspecified)
[10]
  T/C: 83 % of control
[11]
  T/C: 113 % of control and 95 % of control
[12]
  T/C: 101 % of control

## CCS/C(SC)=C(/c1ccccc1)[P+](c1ccccc1)(c1ccccc1)c1ccccc1
endpoint: median tumor weight (est.), dose: 1.5 mg/kg/injection, schedule: Q07DX002 (ip), vehicle: Klucel (hydroxypropylcellulose) (HPC), higher = larger tumour
  T/C: 87 % of control
endpoint: median tumor weight (est.), dose: 3.0 mg/kg/injection, schedule: Q07DX002 (ip), vehicle: Klucel (hydroxypropylcellulose) (HPC), higher = larger tumour
  T/C: 116 % of control

## CS(=O)(=O)OCCN(CCOS(C)(=O)=O)c1ccc(C=Nc2ccc(-c3csc(COc4ccccc4)n3)cc2)cc1
[10]
  T/C: 158 % of control
[11]
  T/C: 97 % of control and 100 % of control
[12]
  T/C: 46 % of control

## NC(=O)c1ncn2c(=O)n(CCCl)nnc12
endpoint: median tumor weight (est.), dose: 6.0 mg/kg/injection, schedule: Q07DX002 (ip), vehicle: saline, higher = larger tumour
  T/C: 110 % of control
[7]
  T/C: 43 % of control and 65 % of control
endpoint: median tumor weight (est.), dose: 6.25 mg/kg/injection, schedule: Q07DX002 (ip), vehicle: saline, higher = larger tumour
  T/C: 47 % of control
endpoint: median tumor weight (est.), dose: 12.0 mg/kg/injection, schedule: Q07DX002 (ip), vehicle: saline, higher = larger tumour
  T/C: 51 % of control
[8]
  T/C: 22 % of control and 45 % of control
[9]
  T/C: 21 % of control and 36 % of control
[1]
  T/C: 55 % of control and 59 % of control
[10]
  T/C: 2 % of control
[3]
  T/C: 2 % of control

## O=c1[nH]cnc2c1ncn2C1OC(CO)C(O)C1O (stereo unspecified)
endpoint: median survival time, dose: 250.0 mg/kg/injection, schedule: Q04DX004 (ip), vehicle: saline with Tween-80, higher = longer survival
  T/C: 108 % of control
endpoint: median survival time, dose: 250.0 mg/kg/injection, schedule: Q04DX004 (ip), vehicle: saline, higher = longer survival
  T/C: 107 % of control
endpoint: median survival time, dose: 500.0 mg/kg/injection, schedule: Q04DX004 (ip), vehicle: saline with Tween-80, higher = longer survival
  T/C: 121 % of control
endpoint: median survival time, dose: 500.0 mg/kg/injection, schedule: Q04DX004 (ip), vehicle: saline, higher = longer survival
  T/C: 120 % of control
endpoint: median survival time, dose: 1000.0 mg/kg/injection, schedule: Q04DX004 (ip), vehicle: saline with Tween-80, higher = longer survival
  T/C: 60 % of control
endpoint: median survival time, dose: 1000.0 mg/kg/injection, schedule: Q04DX004 (ip), vehicle: saline, higher = longer survival
  T/C: 58 % of control

## O=c1[nH]c(=O)n(C2CC(O)C(CO)O2)cc1C(F)(F)F (stereo unspecified)
endpoint: median tumor weight (est.), dose: 10.0 mg/kg/injection, schedule: Q07DX002 (ip), vehicle: saline, higher = larger tumour
  T/C: 83 % of control
endpoint: median tumor weight (est.), dose: 20.0 mg/kg/injection, schedule: Q07DX002 (ip), vehicle: saline, higher = larger tumour
  T/C: 77 % of control
[13]
  T/C: 100 % of control
[2]
  T/C: 114 % of control
[14]
  T/C: 117 % of control
[3]
  T/C: 84 % of control
endpoint: median tumor weight (est.), dose: 160.0 mg/kg/injection, schedule: Q07DX002 (ip), vehicle: saline, higher = larger tumour
  T/C: 118 % of control
[15]
  T/C: 101 % of control
[16]
  T/C: 95 % of control
endpoint: median tumor weight (est.), dose: 320.0 mg/kg/injection, schedule: Q07DX002 (ip), vehicle: saline, higher = larger tumour
  T/C: 156 % of control
endpoint: median tumor weight (est.), dose: 400.0 mg/kg/injection, schedule: Q07DX002 (ip), vehicle: saline with Tween-80, higher = larger tumour
  T/C: 94 % of control
[17]
  T/C: 105 % of control
[6]
  T/C: 90 % of control
endpoint: median tumor weight (est.), dose: 1600.0 mg/kg/injection, schedule: Q07DX002 (ip), vehicle: saline with Tween-80, higher = larger tumour
  T/C: 108 % of control
endpoint: median tumor weight (est.), dose: 1600.0 mg/kg/injection, schedule: Q07DX002 (ip), vehicle: saline, higher = larger tumour
  T/C: 41 % of control

## Cc1ccc(C(=O)[O][Hg][CH2]C2COC([CH2][Hg][O]C(=O)c3ccc(C)cc3)CO2)cc1 (stereo unspecified)
[9]
  T/C: 186 % of control
[10]
  T/C: 177 % of control and 193 % of control
[18]
  T/C: 154 % of control and 209 % of control

## CN(C)CCCNc1c2ccccc2nc2cccc([N+](=O)[O-])c12
endpoint: median tumor weight (est.), dose: 0.03 mg/kg/injection, schedule: Q07DX002 (ip), vehicle: saline, higher = larger tumour
  T/C: 112 % of control and 104 % of control
endpoint: median tumor weight (est.), dose: 0.06 mg/kg/injection, schedule: Q07DX002 (ip), vehicle: saline, higher = larger tumour
  T/C: 116 % of control
endpoint: median tumor weight (est.), dose: 0.06 mg/kg/injection, schedule: Q07DX003 (ip), vehicle: saline, higher = larger tumour
  T/C: 93 % of control
endpoint: median tumor weight (est.), dose: 0.12 mg/kg/injection, schedule: Q07DX003 (ip), vehicle: saline, higher = larger tumour
  T/C: 98 % of control
endpoint: median tumor weight (est.), dose: 0.25 mg/kg/injection, schedule: Q07DX003 (ip), vehicle: saline, higher = larger tumour
  T/C: 101 % of control

## CC(=O)Oc1ccc[nH]c1=O
endpoint: median tumor weight (est.), dose: 25.0 mg/kg/injection, schedule: Q07DX002 (ip), vehicle: saline with Tween-80, higher = larger tumour
  T/C: 102 % of control
endpoint: median tumor weight (est.), dose: 25.0 mg/kg/injection, schedule: Q07DX003 (ip), vehicle: saline with Tween-80, higher = larger tumour
  T/C: 101 % of control
[13]
  T/C: 77 % of control
endpoint: median tumor weight (est.), dose: 50.0 mg/kg/injection, schedule: Q07DX003 (ip), vehicle: saline with Tween-80, higher = larger tumour
  T/C: 70 % of control
[14]
  T/C: 108 % of control and 92 % of control
endpoint: median tumor weight (est.), dose: 100.0 mg/kg/injection, schedule: Q07DX003 (ip), vehicle: saline with Tween-80, higher = larger tumour
  T/C: 49 % of control
[15]
  T/C: 114 % of control
endpoint: median tumor weight (est.), dose: 200.0 mg/kg/injection, schedule: Q07DX003 (ip), vehicle: saline with Tween-80, higher = larger tumour
  T/C: 114 % of control
endpoint: median tumor weight (est.), dose: 400.0 mg/kg/injection, schedule: Q07DX003 (ip), vehicle: saline with Tween-80, higher = larger tumour
  T/C: 83 % of control
[17]
  T/C: 74 % of control and 75 % of control
endpoint: median tumor weight (est.), dose: 800.0 mg/kg/injection, schedule: Q07DX003 (ip), vehicle: saline with Tween-80, higher = larger tumour
  T/C: 57 % of control

## NC(=O)NO
[1]
  T/C: 99 % of control
[2]
  T/C: 69 % of control
[3]
  T/C: 99 % of control
[4]
  T/C: 152 % of control
[16]
  T/C: 78 % of control
[5]
  T/C: 43 % of control and 60 % of control
endpoint: median tumor weight (est.), dose: 400.0 mg/kg/injection, schedule: Q07DX002 (ip), vehicle: saline, higher = larger tumour
  T/C: 88 % of control
endpoint: median tumor weight (est.), dose: 800.0 mg/kg/injection, schedule: Q07DX003 (ip), vehicle: saline, higher = larger tumour
  T/C: 39 % of control

## Cc1cc(NC(=S)SCc2ccc3c(c2)OCO3)ccc1Cl
[18]
  T/C: 111 % of control
[11]
  T/C: 82 % of control

Source: PubChem BioAssay AID212 (DTP/NCI, 2004)
